Here are results for 5 cell lines from the supplement of paper PMC10307832.

What all share (test): relative viability (nuclei count vs DMSO), 5 days (fraction); higher = more cells survive
Compound in the assay “Sulindac + Tozasertib”: CC1=C(CC(=O)O)c2cc(F)ccc2/C1=C\c1ccc([S+](C)[O-])cc1 [Sulindac] + Cc1cc(Nc2cc(N3CCN(C)CC3)nc(Sc3ccc(NC(=O)C4CC4)cc3)n2)n[nH]1 [Tozasertib] (partner 0.1 µM)
In outline: (§1)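 Relative viability divides the nuclei count in treated wells by that in vehicle wells. Lung cancer cell lines were seeded in 1536-well plates, dosed by pin tool the next day, and fixed and stained after 5 days in one step with final 0.05% Triton X-100, 1% formaldehyde and 1 ug/ml Hoechst. Dosing was a single drug or a fixed anchor-drug dose plus five library-drug doses (not always all listed) in √10 steps, and values are medians of duplicate plates imaged at 4×.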

Compound in the assay “Sulindac + Vorinostat”: CC1=C(CC(=O)O)c2cc(F)ccc2/C1=C\c1ccc([S+](C)[O-])cc1 [Sulindac] + O=C(CCCCCCC(=O)Nc1ccccc1)NO [Vorinostat] (partner 1 µM)
In outline: as §1

Compound in assay [1]: CN[C@@H]1C[C@H]2O[C@@](C)([C@@H]1OC)n1c3ccccc3c3c4c(c5c6ccccc6n2c5c31)C(=O)NC4 [Staurosporine] + C[C@]1(O)C[C@@H](c2nc(-c3ccc4ccc(-c5ccccc5)nc4c3)c3c(N)nccn32)C1 [Linsitinib] (partner 1 µM)
In outline: as §1

Compound in assay [2]: O=c1[nH]cc(F)c(=O)[nH]1 [5-Fluorouracil] + N=C(N)NC(=N)NCCc1ccccc1 [Phenformin] (partner 250 µM)
In outline:
as §1

Consider 201T, for which the relative viability with Sulindac + Tozasertib (first compound 0.08 µM) was 1.08; in the assay with Sulindac + Tozasertib (first compound 0.253 µM) it was 0.94; with Sulindac + Tozasertib (first compound 0.8 µM), 0.957; in the assay with Sulindac + Tozasertib (first compound 2.53 µM), 0.94; with Sulindac + Tozasertib (first compound 8 µM), 0.98; in the assay with Sulindac + Vorinostat (first compound 0.08 µM) it was 1.13. Also, the relative viability came out at 0.993 with Sulindac + Vorinostat (first compound 0.253 µM); 0.84 with Sulindac + Vorinostat (first compound 0.8 µM); 0.944 with Sulindac + Vorinostat (first compound 2.53 µM); 0.999 in the assay with Sulindac + Vorinostat (first compound 8 µM); 1.02 in assay [1] (first compound 0.005 µM); 1 in assay [1] (first compound 0.01581 µM). The relative viability in assay [1] (first compound 0.05 µM) turned out to be 0.814; in assay [1] (first compound 0.1581 µM) it was 0.688; in assay [1] (first compound 0.5 µM) it was 0.575; in assay [2] (first compound 0.02 µM) it was 0.423; in assay [2] (first compound 0.2 µM), 0.378; in assay [2] (first compound 0.6325 µM) it was 0.288. The relative viability in assay [2] (first compound 2 µM) was found to be 0.297.

In the case of A549, the relative viability in assay [1] (first compound 0.005 µM) was 0.366; in assay [1] (first compound 0.01581 µM), 0.227; in assay [1] (first compound 0.05 µM) it was 0.0839; in assay [1] (first compound 0.1581 µM) it was 0.0873; in assay [1] (first compound 0.5 µM), 0.0598; in assay [2] (first compound 0.02 µM), 0.172. Further, the relative viability in assay [2] (first compound 0.2 µM) stood at 0.258; in assay [2] (first compound 0.6325 µM), 0.153; in assay [2] (first compound 2 µM), 0.0868.

Take A-427: the relative viability came out at 0.176 in the assay with Sulindac + Tozasertib (first compound 0.08 µM); 0.198 with Sulindac + Tozasertib (first compound 0.253 µM); 0.193 with Sulindac + Tozasertib (first compound 0.8 µM); 0.177 in the assay with Sulindac + Tozasertib (first compound 2.53 µM); 0.206 with Sulindac + Tozasertib (first compound 8 µM); 0.829 in the assay with Sulindac + Vorinostat (first compound 0.08 µM). Moreover, the relative viability in the assay with Sulindac + Vorinostat (first compound 0.253 µM) was determined as 0.84; in the assay with Sulindac + Vorinostat (first compound 0.8 µM) it was 0.953; with Sulindac + Vorinostat (first compound 2.53 µM) it was 0.84; with Sulindac + Vorinostat (first compound 8 µM), 0.995; in assay [1] (first compound 0.005 µM), 1.05; in assay [1] (first compound 0.05 µM) it was 0.43. Besides, the relative viability in assay [1] (first compound 0.1581 µM) came out at 0.313; in assay [1] (first compound 0.5 µM) it was 0.189; in assay [2] (first compound 0.02 µM), 0.29; in assay [2] (first compound 0.2 µM) it was 0.461; in assay [2] (first compound 0.6325 µM), 0.279; in assay [2] (first compound 2 µM), 0.212.

As to ABC-1, the relative viability with Sulindac + Tozasertib (first compound 0.08 µM) was 0.12; with Sulindac + Tozasertib (first compound 0.253 µM), 0.147; in the assay with Sulindac + Tozasertib (first compound 0.8 µM), 0.157; with Sulindac + Tozasertib (first compound 2.53 µM) it was 0.162; in the assay with Sulindac + Tozasertib (first compound 8 µM) it was 0.183; with Sulindac + Vorinostat (first compound 0.08 µM), 1.01. Also, the relative viability was 1.27 in the assay with Sulindac + Vorinostat (first compound 0.253 µM); 1.14 with Sulindac + Vorinostat (first compound 0.8 µM); 0.74 with Sulindac + Vorinostat (first compound 2.53 µM); 1.09 with Sulindac + Vorinostat (first compound 8 µM); 0.195 in assay [1] (first compound 0.005 µM); 0.209 in assay [1] (first compound 0.01581 µM). The relative viability in assay [1] (first compound 0.05 µM) worked out at 0.145; in assay [1] (first compound 0.1581 µM), 0.108; in assay [1] (first compound 0.5 µM), 0.0957; in assay [2] (first compound 0.02 µM), 0.202; in assay [2] (first compound 0.2 µM), 0.253; in assay [2] (first compound 0.6325 µM), 0.257. The relative viability in assay [2] (first compound 2 µM) was 0.23.

BEN: the relative viability with Sulindac + Tozasertib (first compound 0.08 µM) was 0.46; with Sulindac + Tozasertib (first compound 0.253 µM), 0.449; in the assay with Sulindac + Tozasertib (first compound 0.8 µM), 0.519; in the assay with Sulindac + Tozasertib (first compound 2.53 µM), 0.462; with Sulindac + Tozasertib (first compound 8 µM), 0.566; with Sulindac + Vorinostat (first compound 0.08 µM), 0.576. In addition, the relative viability with Sulindac + Vorinostat (first compound 0.253 µM) came to 0.57; with Sulindac + Vorinostat (first compound 0.8 µM) it was 0.539; in the assay with Sulindac + Vorinostat (first compound 2.53 µM), 0.614; in the assay with Sulindac + Vorinostat (first compound 8 µM), 0.617; in assay [1] (first compound 0.005 µM) it was 1.23; in assay [1] (first compound 0.01581 µM), 0.923. The relative viability in assay [1] (first compound 0.05 µM) was 0.436; in assay [1] (first compound 0.1581 µM) it was 0.52; in assay [1] (first compound 0.5 µM) it was 0.245; in assay [2] (first compound 0.02 µM), 0.255; in assay [2] (first compound 0.2 µM) it was 0.257; in assay [2] (first compound 0.6325 µM) it was 0.285. Also, the relative viability in assay [2] (first compound 2 µM) was found to be 0.251.
